Data from US10442804B2, “Compounds for the treatment of hepatitis B virus infection” (Gilead Sciences, Inc., priority 2017, dated 2019).
Like-named read-outs stand apart in the source and are kept apart here.

Experiments:
[1] = test system: HBV-infected NTCP-HepG2 cells, secreted HBsAg; experiment: microbe, parasite or virus in culture; assay type: cell-based, hepatitis B virus (genotype D, AD38-derived); conditions: Hepatitis B virus, 120 h, secreted HBsAg in supernatant after 5 days; geometric mean of minimum four determinations; read-out: NTCP HBsAg EC50
Procedure: NTCP-HepG2 Antiviral Assay for Secreted HBsAg
HepG2 cells stably expressing sodium-taurocholate cotransporting polypeptide (NTCP-HepG2) were grown in Dulbecco's Modified Eagle Medium (DMEM) without sodium pyruvate (Thermo Fisher Scientific, Waltham, Mass.) supplemented with 10% fetal bovine serum, 2 mM L-glutamine, 1% penicillin/streptomycin, and 0.25 mg/mL G-418. NTCP-HepG2 cells were infected with 4000 genome equivalent per cell of genotype D (AD38-derived) HBV in DMEM without sodium pyruvate (Thermo Fisher Scientific, Waltham, Mass.) supplemented with 2% fetal bovine serum, 2 mM L-glutamine, 1% penicillin/streptomycin, 2.5% DMSO, and 4% PEG 8000 (Promega, Madison, Wis.). After 24-hour incubation, cells were washed three times with OptiMEM (Thermo Fisher Scientific, Waltham, Mass.) and fed with fresh DMEM without sodium pyruvate (Thermo Fisher Scientific, Waltham, Mass.) supplemented with 2% fetal bovine serum, 2 mM L-glutamine, 1% penicillin/streptomycin, and 2.5% DMSO. At 4 days after infection, infected NTCP-HepG2 cells were seeded on 384-well plates pre-coated with collagen at a density of 20000 cells per well containing serially diluted compounds of the present disclosure or DMSO (0.5%) in a final volume of 80 μl of DMEM without sodium pyruvate (Thermo Fisher Scientific, Waltham, Mass.) supplemented with 2% fetal bovine serum, 2 mM L-glutamine, 1% penicillin/streptomycin, and 1% DMSO. After an incubation time of 5 days, cell culture supernatant was collected and measured for HBsAg.
Secreted HBsAg in the supernatant were measured using a multiplex chemiluminescent MSD assay (Meso Scale Discovery, Rockville, Md.) using capture and detection antibody pairs specific for HBsAg. The EC50 values were calculated from the fit of the dose-response curves to a four-parameter equation. All EC50 values represent geometric mean values of a minimum of four determinations.

MT-4 cytotoxicity assay = assay type: cell-based, human; conditions: human
Procedure: Biological Example 2: MT-4 Cytotoxicity Assay
The MT-4 cell line (HTLV-1 transformed, human T lymphoblastoid cells) was obtained from the NIH AIDS Reagent program (Bethesda, Md.). MT-4 cells were maintained in RPMI-1640 media (Thermo Fisher Scientific, Waltham, Mass.) supplemented with 10% fetal bovine serum, 100 Units/mL penicillin, and 100 μg/mL streptomycin. For the MT-4 cytotoxicity assay, 0.4 μL of serially diluted solutions of certain compounds disclosed herein were added to 40 μL of cell maintenance media in 384-well black, solid bottom plate using a Biomek FX workstation (Beckman Coulter, Brea, Calif.). Two thousand cells in 35 μL were added to each well using a Biotek uFlow Workstation (Biotek, Winooski, Vt.). Each assay plate contained 10 μM puromycin (final concentration) and 0.5% DMSO in RPMI-1640 media as positive and negative controls, respectively. Assay plates were incubated for five days at 37° C. in an incubator set at 5% CO2 and 90% humidity. After five days, 22 μL of Cell Titer Glo reagent (Promega, Madison, Wis.) was added to the assay plates with a Biotek uFlow Workstation. Plates were subsequently placed on an Envision Plate Reader (Perkin Elmer, Waltham, Mass.) for five minutes before the luminescence signal was read. CC50 values were defined as the compound concentration that caused a 50% decrease in luminescence signal, and were calculated by non-linear regression using Pipeline Pilot software by applying a four parameter fit equation (Accelrys, San Diego, Calif.) and are reported in the following Table 1.

[2] = five days, Cell Titer Glo luminescence, read-out: MT-4 CC50

SMILES | EC50 [1] [nM] | CC50 at 5 days (MT-4 cytotoxicity assay; MT-4 CC50) [nM] | CC50 at 5 days (MT-4 cytotoxicity assay; [2]) [nM]
COCCCOc1cc2c(cc1COC)-c1cc(=O)c(C(=O)O)cn1N1[C@@H]2CCC12CCC2 [Compound 110, (R)-11′-(methoxymethyl)-12′-(3-methoxypropoxy)-8′-oxo-1′,2′,8′,13b′-tetrahydrospiro[cyclobutane-1,3′-pyrido[2,1-a]pyrrolo[1,2-c]phthalazine]-7′-carboxylic acid] | 3.9 | > 10000 | 
COCc1cc2c(cc1OCCCO)[C@H]1CCC(C)(C)N1n1cc(C(=O)O)c(=O)cc1-2 [Compound 111, (R)-12-(3-hydroxypropoxy)-11-(methoxymethyl)-3,3-dimethyl-8-oxo-2,3,8,13b-tetrahydro-1H-pyrido[2,1-a]pyrrolo[1,2-c]phthalazine-7-carboxylic acid] | 32.2 |  | > 10000
CC1(C)CC[C@@H]2c3cc(C#CC(C)(C)S(C)(=O)=O)c(OC(F)F)cc3-c3cc(=O)c(C(=O)O)cn3N21 [Compound 112, (R)-11-(difluoromethoxy)-3,3-dimethyl-12-(3-methyl-3-(methylsulfonyl)but-1-yn-1-yl)-8-oxo-2,3,8,13b-tetrahydro-1H-pyrido[2,1-a]pyrrolo[1,2-c]phthalazine-7-carboxylic acid] | 2.7 |  | > 10000
COCCCOc1cc2c(cc1CO)-c1cc(=O)c(C(=O)O)cn1N1[C@@H]2CCC1(C)C [Compound 113, (R)-11-(hydroxymethyl)-12-(3-methoxypropoxy)-3,3-dimethyl-8-oxo-2,3,8,13b-tetrahydro-1H-pyrido[2,1-a]pyrrolo[1,2-c]phthalazine-7-carboxylic acid] | 22.7 |  | > 10000
COCCCOc1cc2c(cc1COC)-c1cc(=O)c(C(=O)O)cn1N1[C@@H]2COCC12CCC2 [Compound 114, (S)-12′-(methoxymethyl)-13′-(3-methoxypropoxy)-9′-oxo-9′,14b′-dihydro-1′H,3′H-spiro[cyclobutane-1,4′-[1,4]oxazino[3,4-a]pyrido[1,2-c]phthalazine]-8′-carboxylic acid] | 67.6 | > 10000 | 
CC(C)(C)OC(=O)[C@H]1CCN(c2cc3c(cc2OC(F)(F)F)-c2cc(=O)c(C(=O)O)cn2N2[C@@H]3CCC2(C)C)C1 [Compound 115, (R)-12-((S)-3-(tert-butoxycarbonyl)pyrrolidin-1-yl)-3,3-dimethyl-8-oxo-11-(trifluoromethoxy)-2,3,8,13b-tetrahydro-1H-pyrido[2,1-a]pyrrolo[1,2-c]phthalazine-7-carboxylic acid] | 2.9 |  | 8300
COCc1cc2c(cc1N1CC[C@@H](COC)C1)[C@H]1CCC(C)(C)N1n1cc(C(=O)O)c(=O)cc1-2 [Compound 117, (R)-11-(methoxymethyl)-12-((R)-3-(methoxymethyl)pyrrolidin-1-yl)-3,3-dimethyl-8-oxo-2,3,8,13b-tetrahydro-1H-pyrido[2,1-a]pyrrolo[1,2-c]phthalazine-7-carboxylic acid] | 5.3 |  | 9700
[2H]C([2H])(OC)C([2H])([2H])C([2H])([2H])Oc1cc2c(cc1COC)-c1cc(=O)c(C(=O)O)cn1N1[C@@H]2CCC1(C)C [Compound 118, (R)-11-(methoxymethyl)-12-(3-methoxypropoxy-1,1,2,2,3,3-d6)-3,3-dimethyl-8-oxo-2,3,8,13b-tetrahydro-1H-pyrido[2,1-a]pyrrolo[1,2-c]phthalazine-7-carboxylic acid] | 4.1 |  | > 10000
COCCCOc1cc2c(cc1Cl)-c1cc(=O)c(C(=O)O)cn1N1CCCC21 (stereo not shown) [Example 1, 11-chloro-12-(3-methoxypropoxy)-8-oxo-2,3,8,13b-tetrahydro-1H-pyrido[2,1-a]pyrrolo[1,2-c]phthalazine-7-carboxylic acid] | 90 |  | 8000
COCCCOc1cc2c(cc1Cl)-c1cc(=O)c(C(=O)O)cn1N1C2CCC1(C)C (stereo not shown) [Example 4, 11-chloro-12-(3-methoxypropoxy)-3,3-dimethyl-8-oxo-2,3,8,13b-tetrahydro-1H-pyrido[2,1-a]pyrrolo[1,2-c]phthalazine-7-carboxylic acid] | 3.9 |  | > 10000
COCCCOc1cc2c(cc1Cl)-c1cc(=O)c(C(=O)O)cn1N1C2CCCC1(C)C (stereo not shown) [Example 11, 13-chloro-12-(3-methoxypropoxy)-7,7-dimethyl-2-oxo-2,7,8,9,10,10a-hexahydrodipyrido[2,1-a:1′,2′-c]phthalazine-3-carboxylic acid] | 4.3 |  | > 10000
COCCCOc1cc2c(cc1OC)-c1cc(=O)c(C(=O)O)cn1N1[C@@H]2CCC1(C)C [Example 14, (R)-11-methoxy-12-(3-methoxypropoxy)-3,3-dimethyl-8-oxo-2,3,8,13b-tetrahydro-1H-pyrido[2,1-a]pyrrolo[1,2-c]phthalazine-7-carboxylic acid] | 2.1 |  | > 10000
COCCCOc1cc2c(cc1OC)-c1cc(=O)c(C(=O)O)cn1N1[C@H]2CCC1(C)C [Example 15, (S)-11-methoxy-12-(3-methoxypropoxy)-3,3-dimethyl-8-oxo-2,3,8,13b-tetrahydro-1H-pyrido[2,1-a]pyrrolo[1,2-c]phthalazine-7-carboxylic acid] | 350 |  | > 10000
COc1cc2c(cc1OCC1COC1)[C@H]1CCC(C)(C)N1n1cc(C(=O)O)c(=O)cc1-2 [Example 16, (R)-11-methoxy-3,3-dimethyl-12-(oxetan-3-ylmethoxy)-8-oxo-2,3,8,13b-tetrahydro-1H-pyrido[2,1-a]pyrrolo[1,2-c]phthalazine-7-carboxylic acid] | 7.8 |  | > 10000
COCCCOc1cc2c(cc1Cl)-c1cc(=O)c(C(=O)O)cn1N1CC(C)(C)CCC21 (stereo not shown) [Example 17, 13-chloro-12-(3-methoxypropoxy)-8,8-dimethyl-2-oxo-2,7,8,9,10,10a-hexahydrodipyrido[2,1-a:1′,2′-c]phthalazine-3-carboxylic acid] | 110 |  | > 10000
COCCCOc1cc2c(cc1OC(F)F)-c1cc(=O)c(C(=O)O)cn1N1C2CCC1(C)C (stereo not shown) [Example 18, 11-(difluoromethoxy)-12-(3-methoxypropoxy)-3,3-dimethyl-8-oxo-2,3,8,13b-tetrahydro-1H-pyrido[2,1-a]pyrrolo[1,2-c]phthalazine-7-carboxylic acid] | 4 |  | > 10000
CCOc1cc2c(cc1OCCCOC)[C@H]1CCC(C)(C)N1n1cc(C(=O)O)c(=O)cc1-2 [Example 21, (R)-11-ethoxy-12-(3-methoxypropoxy)-3,3-dimethyl-8-oxo-2,3,8,13b-tetrahydro-1H-pyrido[2,1-a]pyrrolo[1,2-c]phthalazine-7-carboxylic acid] | 7.5 |  | > 10000
COCCCOc1cc2c(cc1OC(C)C)-c1cc(=O)c(C(=O)O)cn1N1[C@@H]2CCC1(C)C [Example 22, (R)-11-isopropoxy-12-(3-methoxypropoxy)-3,3-dimethyl-8-oxo-2,3,8,13b-tetrahydro-1H-pyrido[2,1-a]pyrrolo[1,2-c]phthalazine-7-carboxylic acid] | 12 |  | > 10000
COCCCOc1cc2c(cc1OCCCOC)[C@H]1CCC(C)(C)N1n1cc(C(=O)O)c(=O)cc1-2 [Example 23, (R)-11,12-bis(3-methoxypropoxy)-3,3-dimethyl-8-oxo-2,3,8,13b-tetrahydro-1H-pyrido[2,1-a]pyrrolo[1,2-c]phthalazine-7-carboxylic acid] | 53 |  | > 10000
COCCCOc1cc2c(cc1OCCCOC)[C@@H]1CCC(C)(C)N1n1cc(C(=O)O)c(=O)cc1-2 [Example 24, (S)-11,12-bis(3-methoxypropoxy)-3,3-dimethyl-8-oxo-2,3,8,13b-tetrahydro-1H-pyrido[2,1-a]pyrrolo[1,2-c]phthalazine-7-carboxylic acid] | > 1000 |  | > 10000
